Experimental data taken from paper PMC5586502 (Bioorganic & medicinal chemistry letters, 2017).

System: COX-1/2 (mixed COX-1 and COX-2)
Assay: COX
Type: biochemical, ovine/human
Conditions: read-out: IC50 against COX-1/2; suggested from ~37% inhibition at 100 µM

## COc1ccc(N(Nc2ccc(Br)cc2)c2ccccc2N(Nc2ccc(Br)cc2)c2ccccc2OC)cc1 [Compound 6]
  IC50: > 100 µM
